Measurements as given in patent US9592309B2, “Positron emission tomography probe to monitor selected sugar metabolism in vivo” (The Regents of the University of California, priority 2012, dated 2017).

What was measured:
[1] = Positron emission tomography / computed tomography imaging of mice; type: in vivo; settings: for tissues in which the probe selectively accumulates: mice, positron emission tomography
Description: Positron Emission Tomography, Computed Tomography Imaging. 6-12-week old C57BL/6J female mice and 12-week old female B6.V-Lep^ob/J (Ob/Ob) mice were purchased from the Jackson Laboratory. Animals were anesthetized with 2% isofluorane and injected intravenous in the tail vein with 75-150 μCi of [^18F]-FDA. One hour post-injection, the mice were imaged for 10 minutes on a Siemens Inveon PET scanner and 10 minutes on a MicroCAT II CT system. […] Journal of Digital Imaging 17 (3), 205 (2004)).

[2] = target: T1, 5′ FLAG-tagged human ribokinase (Homo sapiens, UniProt Q9H477); experiment: Ribokinase assay (kinase reaction with isolated FLAG-tagged ribokinase); type: biochemical; settings: 20 minutes at 37° C., 3 mM ATP
T1 construct: host or cells: 293T cells, transfected with pMSCV-IRES-YFP (pRBKS); captured with anti-FLAG M2 magnetic beads and eluted with FLAG peptide
T1 sequence (Q9H477 whole entry): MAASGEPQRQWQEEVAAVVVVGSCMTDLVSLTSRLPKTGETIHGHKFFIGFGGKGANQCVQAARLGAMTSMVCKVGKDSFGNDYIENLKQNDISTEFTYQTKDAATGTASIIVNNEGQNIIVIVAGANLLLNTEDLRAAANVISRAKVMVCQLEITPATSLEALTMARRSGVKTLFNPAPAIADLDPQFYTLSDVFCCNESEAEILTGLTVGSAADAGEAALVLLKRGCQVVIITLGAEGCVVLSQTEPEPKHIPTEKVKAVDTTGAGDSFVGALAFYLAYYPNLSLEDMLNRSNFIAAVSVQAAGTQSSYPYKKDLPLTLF
Description: Human ribokinase plasmid was purchased from OriGene (NM_022128.1). A FLAG sequence was appended 5′ to the ribokinase sequence and the FLAG-tagged ribokinase was subcloned into the retroviral vector pMSCV-IRES-YFP (pRBKS). 293T cells were transfected with the pRBKS vector and Lipofectamine 2000 (Invitrogen) according to manufacturer's protocol. Cells were lysed in RIPA buffer (1% NP-40, 1% Sodium deoxycholate, 0.3% Sodium dodecyl sulfate, […], 1 mM EDTA, 50 mM Tris-HCl pH 6.8). Protein concentration was determined by the BCA Protein Assay Kit (Pierce), and FLAG-tagged ribokinase was captured from 1 mg of lysate with anti-FLAG M2 Magnetic Beads (Sigma) and eluted with 100 μL of FLAG peptide (Sigma), as per the manufacturer's protocol. Cells not transfected with RBKS were lysed as a control.
1 μL of FLAG-tagged ribokinase or control eluent was added to 50 mM Tris-HCl, pH 7.8, 3 mM ATP, 100 mM KCl, 10 mM MgCl2, 1× protease inhibitor cocktail (Roche), and 1 μCi [^3H]-Ribose (Moravek) or [^18F]-FDA in a 10 μL volume. […] In the case of [^3H]-ribose, the samples were dried, placed into scintillation vials, 3 mL of Bio-Safe NA (RPI Corp) was added to each vial, and the samples were measured on a scintillation counter. In the case of [^18F]-FDA, the samples were placed into scintillation vials and counted on a gamma counter. […]

[3] = system: enzymes in the pentose phosphate pathway; experiment: Enzymes that metabolize 2-fluoro-2-deoxyarabinose in vitro (FIG. 6); type: in vitro ADME
[4] = system: non-oxidative pentose phosphate pathway; experiment: Mass spectrometry analysis of 2-fluoro-2-deoxyarabinose metabolites in mouse organs (MRM LC-MS); type: in vivo; settings: mice
Description: Mice (8-12 weeks old) were treated with 25 μL of 500 mM 2-fluoro-2-deoxyarabinose. 1 hour later, the mice were sacrificed and the metabolites from distinct organs were extracted with 3× with 80% MeOH. Extracted metabolites were dried and analyzed by multiple reaction monitoring liquid chromatography-mass spectrometry (MRM LC-MS).

Molecule | localization of probe to the liver ([1]; 12 week old C57Bl/6 female (wild-type) mice, 1 hour, PET/CT) | tissues in which the probe selectively accumulates [1] | tissues in which the probe selectively accumulates ([1]; listed as 18F labelled 2-fluoro-2-deoxyarabinose) | phosphorylation by isolated ribokinase [2] | metabolism by enzymes in vitro [3] | metabolic pathway and metabolite in vivo ([4]; in vivo) | tissues that metabolize the probe ([4]; metabolite studies)
OC[C@H]1O[C@@H](O)C([18F])C1O (some centres unmarked) [[^18F]-FDA, [^18F]-2-fluoro-2-deoxyarabinose] | localizing significantly to the liver | accumulates in organs with high levels of ribokinase | murine liver, kidney and intestinal tissues | phosphorylates | enzymes in the pentose phosphate pathway metabolize | metabolized in vivo by the non-oxidative pentose phosphate pathway to 4-fluoro-4-deoxysedoheptulose-7-phosphate | metabolized by tissues in addition to the liver, including the spleen, muscles, heart, blood, thyroid, and kidneys
[^3H]-Ribose [reference compound] | – | – | – | phosphorylates | – | – | –
